Reference: US20220079909A1, “Food Supplement For Improving Sports Performance” (NUTRIBAM BV, priority 2019, published 2022)

System: male subjects
Experiment: Synergetic efficiency of sulphoraphane and curcumin in four groups: training diary, HRV, RHR (Example 4)
Assay type: in vivo, human
Details: 5-day period; for muscle pain and fatigue during the day (training diary): oral daily dose, compared to the negative control (Group nC, Gatorade powder); for HRV and RHR indices (overtraining): compared to the negative control (Group nC)
Experimental: The synergetic efficiency of a composition comprising both sulphoraphane and curcumin, was analysed. This analysis was realized, for monitoring the performances and recuperation of subjects, after doing a daily physical activity. The monitoring was done by means of a training diary which had to be completed three times a day, as well as by measuring the 'heart rate variability' (HRV), and the 'rest hear rate' (RHR) of these subjects. The HRV was analysed under controlled laboratory circumstances, before and after doing the prescribed daily physical activity. Analogously, the RHR was analysed under controlled laboratory circumstances, before and after doing the prescribed daily physical activity. The training diary was made up of a questionnaire, which needed to be completed by means of a scale of five (scale of […]). Questions were asked about possible muscle pain of the subjects, but also for example their energy level during the different moments of the day. 37 male subjects were selected to take part in the experiment. Their physical characteristics were as follows (average and SD): age 27.6 SD:1.6 years; weight 79.3 SD:2.1 kg; length 184 SD:3 cm. The subjects were divided into 4 groups: a group receiving only curcumin (Group C, n=10) (daily dose of 50 mg), a group receiving only sulphoraphane (Group S, n=10) (daily dose 25 mg), a group receiving both curcumin and sulphoraphane (Group C+S, n=10) (the same concentrations as the controls), and finally, a negative control was included in the experiment, it comprises a group receiving a similar dose of placebo, thereto Gatorade powder was used (Group nC, n=7). Each subject was asked to take a prescribed daily dose for five successive days. Each dose was dissolved in hot water. During this period, the subjects also had to follow a similar protein diet. The whole experiment was divided into 4 time periods, here, the different groups were tested successively. Between the different time periods, a two-week period was provided in which no experiment was carried out. The different compositions were administered orally every day in the form of a powder or dispersed in a drink. The daily dose of this powder for Group C comprised […] and 950 mg of Gatorade powder. The daily dose of this powder for Group S comprised […] and 950 mg of Gatorade powder. The daily dose of this powder for Group C+S comprised 25 mg of sulphoraphane, 50 mg of curcumin and 950 mg of Gatorade powder. The daily dose of this powder for Group nC comprised 1000 mg of Gatorade powder.

Structure (SMILES) | muscle pain and fatigue during the day (training diary) | HRV and RHR indices (overtraining)
C[S+]([O-])CCCCN=C=S (stereo not shown) [Group S, 1-isothiocyanato-4-methyl sulfinyl butane] | less muscle pain and fatigue | will probably overtrain less
COc1cc(/C=C/C(=O)CC(=O)/C=C/c2ccc(O)c(OC)c2)ccc1O [Group C, curcumin] | less muscle pain and fatigue | will probably overtrain less
